Reference: the Deep4Chem optical property database

Test: photoluminescence quantum yield (fraction); solvent given as SMILES

COc1ccc(C2=CC3=C(c4c(C)cc(C)cc4C)c4cc(-c5ccc(OC)cc5)c(-c5ccc(OC)cc5)n4[B-](F)(F)[N+]3=C2c2ccc(OC)cc2)cc1
photoluminescence quantum yield (in C1CCCCC1): 0.64 | photoluminescence quantum yield (in C1CCOC1): 0.42 | photoluminescence quantum yield (in CC#N): 0.24 | photoluminescence quantum yield (in Cc1ccccc1): 0.51 | photoluminescence quantum yield (in ClCCl): 0.42

CN1/C(=C/C=C(/C=C/c2sc3ccccc3[n+]2C)c2ccccc2)Sc2ccccc21
photoluminescence quantum yield (in CCO): 0.06 | photoluminescence quantum yield (in CO): 0.07 | photoluminescence quantum yield (in CS(C)=O): 0.24

C(#Cc1cc2ccc3cc(C#Cc4ccccc4)cc4ccc(c1)c2c34)c1ccccc1
photoluminescence quantum yield (in Cc1ccccc1): 0.29

c1ccc2c(c1)CCc1ccccc1N2
photoluminescence quantum yield (in CC#N): 0.2 | photoluminescence quantum yield (in CCCCCC): 0.13 | photoluminescence quantum yield (in CO): 0.131

c1ccc2c3c(ccc2c1)-c1cccc2cc4ccccc4c-3c12
photoluminescence quantum yield (in CCCCCCC): 0.00078

Cc1c(C)n2c(COC(=O)CNC(=O)OC(C)(C)C)c(C)c(=O)n2c1=O
photoluminescence quantum yield (in CCO): 0.63
